# Molecular target: T1, Recombinant human TPH1 (MBP tagged) (Homo sapiens, UniProt P17752)
# T1 construct: cloning full length human TPH1 cDNA in to a bacterial pMAL-c5E expression vector; made in house; host or cells: E. coli BL21 (DE3)
# T1 sequence (P17752 1-444): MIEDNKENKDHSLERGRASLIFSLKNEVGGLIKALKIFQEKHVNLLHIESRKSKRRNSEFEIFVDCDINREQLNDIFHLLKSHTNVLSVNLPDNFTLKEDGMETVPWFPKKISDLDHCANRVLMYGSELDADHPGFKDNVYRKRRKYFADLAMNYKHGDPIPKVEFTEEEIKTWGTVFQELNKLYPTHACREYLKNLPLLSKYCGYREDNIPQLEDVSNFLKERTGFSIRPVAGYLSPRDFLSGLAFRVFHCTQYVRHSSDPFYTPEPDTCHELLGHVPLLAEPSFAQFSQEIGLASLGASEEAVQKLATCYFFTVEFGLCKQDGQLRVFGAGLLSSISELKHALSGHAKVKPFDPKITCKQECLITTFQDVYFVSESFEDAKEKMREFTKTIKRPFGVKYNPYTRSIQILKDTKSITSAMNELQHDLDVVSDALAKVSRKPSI
# Test: TPH1 in vitro inhibition assay (kinetic fluorescence)
# Type: biochemical
# Conditions: TPH1 Range (TPH1 inhibition IC50)
# Outline: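 Final mix: 15 nM MBP-TPH1, 30 μM Trp, 36 μM 6-methyltetrahydropterin, 25 μM ferrous ammonium sulfate, 50 mM MES pH 7.1, 1% DMSO, room temperature.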
row,SMILES,IC50 [nM]
1,"CN1CCc2cc(-c3ccc([C@@H](Oc4cc(N5CCC6(CC5)CN[C@H](C(=O)O)C6)nc(N)n4)C(F)(F)F)cc3)ccc2C1=O [Example 55bj, (S)-8-(2-amino-6-((R)-2,2,2-trifluoro-1-(4-(2-methyl-1-oxo-1,2,3,4-tetrahydroisoquinolin-6-yl)phenyl)ethoxy)pyrimidin-4-yl)-2,8-diazaspiro[4.5]decane-3-carboxylic acid]",< 50

# Same assay, conditions: read-out: TPH1 Range (TPH1 inhibition IC50)
row,SMILES,IC50 [nM]
1,Cc1c2ccc(-c3ccc([C@@H](Oc4cc(N5CCC6(CC5)CN[C@H](C(=O)O)C6)nc(N)n4)C(F)(F)F)cc3)cc2nn1C [Example 55bb],< 50
2,"CN(C)Cc1ccc(-c2ccc([C@@H](Oc3cc(N4CCC5(CC4)CN[C@H](C(=O)O)C5)nc(N)n3)C(F)(F)F)cc2)cc1 [Example 55bf, (S)-8-(2-amino-6-((R)-1-(4′-((dimethylamino)methyl)-[1,1′-biphenyl]-4-yl)-2,2,2-trifluoroethoxy)pyrimidin-4-yl)-2,8-diazaspiro[4.5]decane-3-carboxylic acid]",50 to 300
3,"Nc1nc(O[C@H](c2ccc(-c3ccc4cccnc4c3)cc2)C(F)(F)F)cc(N2CCC3(CC2)CN[C@H](C(=O)O)C3)n1 [Example 55bh, (S)-8-(2-amino-6-((R)-2,2,2-trifluoro-1-(4-(quinolin-7-yl)phenyl)ethoxy)pyrimidin-4-yl)-2,8-diazaspiro[4.5]decane-3-carboxylic acid]",50 to 300
4,"COc1cc(F)ccc1-c1ccc([C@@H](Oc2cc(N3CCC4(CC3)CN[C@H](C(=O)O)C4)nc(N)n2)C(F)(F)F)cc1 [Example 55bl, (S)-8-(2-amino-6-((R)-2,2,2-trifluoro-1-(4′-fluoro-2′-methoxy-[1,1′-biphenyl]-4-yl)ethoxy)pyrimidin-4-yl)-2,8-diazaspiro[4.5]decane-3-carboxylic acid]",300 to 3000
5,"COc1cccc(-c2ccc([C@@H](Oc3cc(N4CCC5(CC4)CN[C@H](C(=O)O)C5)nc(N)n3)C(F)(F)F)cc2)c1F [Example 55bm, (S)-8-(2-amino-6-((R)-2,2,2-trifluoro-1-(2′-fluoro-3′-methoxy-[1,1′-biphenyl]-4-yl)ethoxy)pyrimidin-4-yl)-2,8-diazaspiro[4.5]decane-3-carboxylic acid]",300 to 3000
6,"Cc1ccc(-c2ccc([C@@H](Oc3cc(N4CCC5(CC4)CN[C@H](C(=O)O)C5)nc(N)n3)C(F)(F)F)cc2)cn1 [Example 55bo, (S)-8-(2-amino-6-((R)-2,2,2-trifluoro-1-(4-(6-methylpyridin-3-yl)phenyl)ethoxy)pyrimidin-4-yl)-2,8-diazaspiro[4.5]decane-3-carboxylic acid]",50 to 300
7,"Nc1nc(O[C@H](c2ccc(-c3cccc(C(=O)O)c3)cc2)C(F)(F)F)cc(N2CCC3(CC2)CN[C@H](C(=O)O)C3)n1 [Example 55bq, (S)-8-(2-amino-6-((R)-1-(3′-carboxy-[1,1′-biphenyl]-4-yl)-2,2,2-trifluoroethoxy)pyrimidin-4-yl)-2,8-diazaspiro[4.5]decane-3-carboxylic acid]",300 to 3000
8,"CCCc1ccc(-c2ccc([C@@H](Oc3cc(N4CCC5(CC4)CN[C@H](C(=O)O)C5)nc(N)n3)C(F)(F)F)cc2)cc1 [Example 55bs, (S)-8-(2-amino-6-((R)-2,2,2-trifluoro-1-(4′-propyl-[1,1′-biphenyl]-4-yl)ethoxy)pyrimidin-4-yl)-2,8-diazaspiro[4.5]decane-3-carboxylic acid]",300 to 3000
9,"Nc1nc(O[C@H](c2ccc(-c3cccc(CO)c3)cc2)C(F)(F)F)cc(N2CCC3(CC2)CN[C@H](C(=O)O)C3)n1 [Example 55bt, (S)-8-(2-amino-6-((R)-2,2,2-trifluoro-1-(3′-(hydroxymethyl)-[1,1′-biphenyl]-4-yl)ethoxy)pyrimidin-4-yl)-2,8-diazaspiro[4.5]decane-3-carboxylic acid]",300 to 3000
10,"Nc1nc(O[C@H](c2ccc(-c3ccccc3CO)cc2)C(F)(F)F)cc(N2CCC3(CC2)CN[C@H](C(=O)O)C3)n1 [Example 55bu, (S)-8-(2-amino-6-((R)-2,2,2-trifluoro-1-(2′-(hydroxymethyl)-[1,1′-biphenyl]-4-yl)ethoxy)pyrimidin-4-yl)-2,8-diazaspiro[4.5]decane-3-carboxylic acid]",300 to 3000
11,"CC(C)Oc1ccc(-c2ccc([C@@H](Oc3cc(N4CCC5(CC4)CN[C@H](C(=O)O)C5)nc(N)n3)C(F)(F)F)cc2)cc1 [Example 55bv, (S)-8-(2-amino-6-((R)-2,2,2-trifluoro-1-(4′-isopropoxy-[1,1′-biphenyl]-4-yl)ethoxy)pyrimidin-4-yl)-2,8-diazaspiro[4.5]decane-3-carboxylic acid]",300 to 3000
12,"Nc1nc(O[C@H](c2ccc(-c3cccc(C(=O)N4CCCCC4)c3)cc2)C(F)(F)F)cc(N2CCC3(CC2)CN[C@H](C(=O)O)C3)n1 [Example 55bx, (S)-8-(2-amino-6-((R)-2,2,2-trifluoro-1-(3′-(piperidine-1-carbonyl)-[1,1′-biphenyl]-4-yl)ethoxy)pyrimidin-4-yl)-2,8-diazaspiro[4.5]decane-3-carboxylic acid]",300 to 3000
13,"Cn1cnc2cc(-c3ccc([C@@H](Oc4cc(N5CCC6(CC5)CN[C@H](C(=O)O)C6)nc(N)n4)C(F)(F)F)cc3)ccc21 [Example 55c, (S)-8-(2-amino-6-((R)-2,2,2-trifluoro-1-(4-(1-methyl-1H-benzo[d]imidazol-5-yl)phenyl)ethoxy)pyrimidin-4-yl)-2,8-diazaspiro[4.5]decane-3-carboxylic acid]",50 to 300

# Continued, values first:
row,IC50 [nM],SMILES
1,< 50,"Nc1nc(O[C@H](c2ccc(-c3ccc4ccncc4c3)cc2)C(F)(F)F)cc(N2CCC3(CC2)CN[C@H](C(=O)O)C3)n1 [Example 55be, (S)-8-(2-amino-6-((R)-2,2,2-trifluoro-1-(4-(isoquinolin-7-yl)phenyl)ethoxy)pyrimidin-4-yl)-2,8-diazaspiro[4.5]decane-3-carboxylic acid]"
2,< 50,"Nc1nc(O[C@H](c2ccc(-c3ccc4nccnc4c3)cc2)C(F)(F)F)cc(N2CCC3(CC2)CN[C@H](C(=O)O)C3)n1 [Example 55bi, (S)-8-(2-amino-6-((R)-2,2,2-trifluoro-1-(4-(quinoxalin-6-yl)phenyl)ethoxy)pyrimidin-4-yl)-2,8-diazaspiro[4.5]decane-3-carboxylic acid]"
3,50 to 300,"Nc1nc(O[C@H](c2ccc(-c3ccc4ncncc4c3)cc2)C(F)(F)F)cc(N2CCC3(CC2)CN[C@H](C(=O)O)C3)n1 [Example 55bk, (S)-8-(2-amino-6-((R)-2,2,2-trifluoro-1-(4-(quinazolin-6-yl)phenyl)ethoxy)pyrimidin-4-yl)-2,8-diazaspiro[4.5]decane-3-carboxylic acid]"
4,3000 to 10000,"COc1ccc(F)c(-c2ccc([C@@H](Oc3cc(N4CCC5(CC4)CN[C@H](C(=O)O)C5)nc(N)n3)C(F)(F)F)cc2)c1 [Example 55bn, (S)-8-(2-amino-6-((R)-2,2,2-trifluoro-1-(2′-fluoro-5′-methoxy-[1,1′-biphenyl]-4-yl)ethoxy)pyrimidin-4-yl)-2,8-diazaspiro[4.5]decane-3-carboxylic acid]"
5,50 to 300,"Nc1nc(O[C@H](c2ccc(-c3ccc(C(=O)N4CCCC4)cc3)cc2)C(F)(F)F)cc(N2CCC3(CC2)CN[C@H](C(=O)O)C3)n1 [Example 55bp, (S)-8-(2-amino-6-((R)-2,2,2-trifluoro-1-(4′-(pyrrolidine-1-carbonyl)-[1,1′-biphenyl]-4-yl)ethoxy)pyrimidin-4-yl)-2,8-diazaspiro[4.5]decane-3-carboxylic acid]"
6,300 to 3000,"Nc1nc(O[C@H](c2ccc(-c3ccc(C(=O)O)cc3)cc2)C(F)(F)F)cc(N2CCC3(CC2)CN[C@H](C(=O)O)C3)n1 [Example 55br, (S)-8-(2-amino-6-((R)-1-(4′-carboxy-[1,1′-biphenyl]-4-yl)-2,2,2-trifluoroethoxy)pyrimidin-4-yl)-2,8-diazaspiro[4.5]decane-3-carboxylic acid]"
7,50 to 300,"CN(C)C(=O)c1ccc(-c2ccc([C@@H](Oc3cc(N4CCC5(CC4)CN[C@H](C(=O)O)C5)nc(N)n3)C(F)(F)F)cc2)cc1 [Example 55bw, (S)-8-(2-amino-6-((R)-1-(4′-(dimethylcarbamoyl)-[1,1′-biphenyl]-4-yl)-2,2,2-trifluoroethoxy)pyrimidin-4-yl)-2,8-diazaspiro[4.5]decane-3-carboxylic acid]"
8,300 to 3000,"CN(C)Cc1ccccc1-c1ccc([C@@H](Oc2cc(N3CCC4(CC3)CN[C@H](C(=O)O)C4)nc(N)n2)C(F)(F)F)cc1 [Example 55by, (S)-8-(2-amino-6-((R)-1-(2′-((dimethylamino)methyl)-[1,1′-biphenyl]-4-yl)-2,2,2-trifluoroethoxy)pyrimidin-4-yl)-2,8-diazaspiro[4.5]decane-3-carboxylic acid]"
9,50 to 300,"CCc1ccc(-c2ccc([C@@H](Oc3cc(N4CCC5(CC4)CN[C@H](C(=O)O)C5)nc(N)n3)C(F)(F)F)cc2)cc1 [Example 55bz, (S)-8-(2-amino-6-((R)-1-(4′-ethyl-[1,1′-biphenyl]-4-yl)-2,2,2-trifluoroethoxy)pyrimidin-4-yl)-2,8-diazaspiro[4.5]decane-3-carboxylic acid]"
10,50 to 300,"Nc1nc(O[C@H](c2ccc(-c3cccc(O)c3)cc2)C(F)(F)F)cc(N2CCC3(CC2)CN[C@H](C(=O)O)C3)n1 [Example 55ca, (S)-8-(2-amino-6-((R)-2,2,2-trifluoro-1-(3′-hydroxy-[1,1′-biphenyl]-4-yl)ethoxy)pyrimidin-4-yl)-2,8-diazaspiro[4.5]decane-3-carboxylic acid]"

# From patent publication US11759462B2, “Spirocyclic compounds as tryptophan hydroxylase inhibitors” (priority 2013, dated 2023)
